# Data from article PMC13388172 (Frontiers in Pharmacology, 2026).
# Experiment: Therapeutic drug monitoring of serum ETI components and metabolites (UPLC-MS/MS), hourly for 9 hours after ingestion
# Format: in vivo
# Conditions: female, human, oral, full dose ETI, one pwCF, sampled hourly for 9 hours after ingestion, read-out: Area under the curve (AUC), serum
# Procedure: The analytes of interest were assayed using an ultra-performance liquid chromatography tandem mass spectrometry method. In the concentration range from 0.01 to 20.0 mg/L, calibration curves were linear with a correlation coefficient >0.999 for all analytes.
# Repeat TDM was conducted after a month on this reduced dosing strategy as this was felt likely to provide adequate time for steady-state concentrations to be achieved.
smiles,measurement,value
CC(C)(CO)c1cc2cc(NC(=O)C3(c4ccc5c(c4)OC(F)(F)O5)CC3)c(F)cc2n1C[C@@H](O)CO [tezacaftor],AUC,92600 ng·h/mL
